Data: patent US20100204182A1, “ECTONUCLEOTIDASE INHIBITORS” (RHEINISCHE FRIEDRICH-WILHELMS-UNIVERSITAT BONN, priority 2006, published 2010)

What was measured:
[1] = target: T1, rat ecto-5′-nucleotidase (Rattus norvegicus, UniProt P21588); assay: Ecto-5′-nucleotidase assay by capillary electrophoresis (CE); assay type: biochemical; settings: CE method, read-out: Rat Ecto-5′-NT Ki [μM] ± SEM
T1 construct: Catalytically active recombinant soluble glutathione-S-transferase/ecto-5′-nucleotidase fusion protein; GST (glutathione-S-transferase); made in house; host or cells: insect cells, baculovirus system
T1 sequence (P21588 29-551 limits assumed): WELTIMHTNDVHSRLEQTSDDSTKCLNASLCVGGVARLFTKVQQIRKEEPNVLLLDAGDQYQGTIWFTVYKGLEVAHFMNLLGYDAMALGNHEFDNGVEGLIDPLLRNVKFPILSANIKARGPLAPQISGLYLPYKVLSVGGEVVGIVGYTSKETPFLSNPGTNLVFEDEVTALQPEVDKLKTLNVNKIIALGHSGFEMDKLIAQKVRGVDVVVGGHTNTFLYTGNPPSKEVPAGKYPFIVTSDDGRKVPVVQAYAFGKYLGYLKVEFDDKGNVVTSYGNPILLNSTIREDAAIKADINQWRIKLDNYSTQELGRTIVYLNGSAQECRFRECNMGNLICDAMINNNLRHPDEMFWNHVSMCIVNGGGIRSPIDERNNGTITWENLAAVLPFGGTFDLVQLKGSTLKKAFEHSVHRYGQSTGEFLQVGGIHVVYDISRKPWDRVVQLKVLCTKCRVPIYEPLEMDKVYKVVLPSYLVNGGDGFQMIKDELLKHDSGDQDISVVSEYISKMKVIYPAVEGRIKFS
Experimental: Catalytically active recombinant soluble glutathione-S-transferase/ecto-5′-nucleotidase fusion protein was expressed in insect cells using the baculovirus system and purified by affinity chromatography using agarose-coupled GSH as previously described [Servos, J., Reilander, H., Zimmermann, H. Drug. Dev. Res. 1998, 45, 269-276]
Enzyme assays were carried out at 37° C. in a final volume of 100 μl. The reaction buffer consisted of 10 mM Hepes (2.38 g/L), 2 mM MgCl2 […], and 1 mM CaCl2 (0.11 g/L), brought to pH 7.4 by adding the appropriate amount of 1-N aqueous HCl solution. The reaction was initiated by the addition of 10 μl of the appropriately diluted enzyme (0.52 μg). The reaction mixture was incubated for 10 min and terminated by heating at 99° C. for 5 min. Nucleosides and nucleotides were stable under these conditions. Aliquots of the reaction mixture (50 μl) were then transferred to mini-CE vials containing 50 μl of the internal standard uridine (final concentration 20 μM). In the absence of an internal standard similar results were obtained. Each analysis was repeated twice (duplicates) in three separate experiments.
CE separations were carried out using a P/ACE MDQ system (Beckman Coulter Instruments, Fullerton, Calif., USA) equipped with a DAD detection system. The electrophoretic separations were carried out using an eCAP fused-silica capillary [30 cm (20 cm effective length)×75 μm internal diameter (I.D), ×375 μm outside diameter (O.D) obtained from Beckman Coulter]. The following conditions were applied: T=25° C., λmax=260 nm, voltage=15 kV, running buffer 40 mM sodium borate buffer, pH 9.1. The capillary was washed with 0.1 M NaOH for 2 min, deionized water for 1 min, and running buffer for 1 min before each injection. Injections were made by applying 0.1 psi of pressure to the sample solution for 30 s. The amount of adenosine formed was determined. The CE instrument was fully controlled through a personal computer, which operated with the analysis software 32 KARAT obtained from Beckman Coulter. Electropherograms were evaluated using the same software.

[2] = target: T2, human NTPDase1 (Homo sapiens, UniProt P49961); assay: NTPDase inhibition assay by capillary electrophoresis (CE), NTPDase1; assay type: biochemical; settings: CE method, ATP 320 μM, Km 17 μM, read-out: NTPDase1 Ki [μM] ± SEM
T2 sequence (P49961 1-510): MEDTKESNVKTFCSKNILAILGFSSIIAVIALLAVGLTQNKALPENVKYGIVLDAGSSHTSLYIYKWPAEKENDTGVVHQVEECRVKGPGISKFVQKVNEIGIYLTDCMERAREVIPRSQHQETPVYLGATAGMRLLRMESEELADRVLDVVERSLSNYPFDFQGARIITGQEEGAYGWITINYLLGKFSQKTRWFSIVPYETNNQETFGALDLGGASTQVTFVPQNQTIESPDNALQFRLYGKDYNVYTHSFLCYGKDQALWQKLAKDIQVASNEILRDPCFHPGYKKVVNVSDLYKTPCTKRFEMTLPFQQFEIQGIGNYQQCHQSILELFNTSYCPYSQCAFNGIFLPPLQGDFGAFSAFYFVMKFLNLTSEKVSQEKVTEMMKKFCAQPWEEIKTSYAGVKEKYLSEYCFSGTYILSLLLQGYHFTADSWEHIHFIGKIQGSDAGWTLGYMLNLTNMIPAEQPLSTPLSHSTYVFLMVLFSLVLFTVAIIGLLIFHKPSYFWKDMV
Experimental: The applied enzyme inhibition assay has been described (Iqbal J, Vollmayer P, Braun N, Zimmermann H, Müller C E. A capillary electrophoresis method for the characterization of ecto-nucleoside triphosphate diphosphohydrolases (NTPDases) and the analysis of inhibitors by in-capillary enzymatic microreaction. Purinergic Signalling 2005, 1, 349-358).
A. CE instrumentation: All experiments were carried out using a P/ACE MDQ capillary electrophoresis system (Beckman Instruments, Fullerton, Calif., USA) equipped with a UV detection system coupled with a diode-array detector (DAD). Data collection and peak area analysis were performed by the P/ACE MDQ software 32 KARAT obtained from Beckman Coulter. The capillary temperature was kept constant at 25° C. The temperature of the sample storing unit was also adjusted to 25° C. The electrophoretic separations were carried out using an eCAP polyacrylamide-coated fused-silica capillary [(30 cm (20 cm effective length)×50 μm internal diameter (I.D.)×360 μm outside diameter (O.D.), obtained from CS-Chromatographie (Langerwehe, Germany)]. The separation was performed using an applied current of −60 μA and a data acquisition rate of 8 Hz. Analytes were detected using direct UV absorbance at 210 nm. The capillary was conditioned by rinsing with water for 2 min and subsequently with buffer (phosphate 50 mM, pH 6.5) for 1 min. Sample injections were made at the cathodic side of the capillary.
B. NTPDase inhibition assay by capillary electrophoresis: Enzyme inhibition assays were carried out at 37° C. in a final volume of 100 μl. The reaction mixture contained 320 μM of ATP (substrate) in reaction buffer. The reaction buffer contained 140 mM NaCl, 5 mM KCl, 1 mM MgCl2, 2 mM CaCl2, and 10 mM Hepes, pH 7.4.
Different concentrations of inhibitors dissolved in DMSO or water (10 μl) were added and the reaction was initiated by the addition of 10 μl of the appropriately diluted recombinant or native human or rat NTPDase enzyme. […] The mixture (final volume 100 μl) was incubated for 15 min and terminated by heating at 99° C. for 4 min. Aliquots of the reaction mixture (50 μl) were then transferred to mini-CE vials and injected into the CE instrument under the conditions described above. 20 μM of UMP was used as internal standard. Inhibition of NTPDase was tested over a range of 6 to 8 concentrations of test compound spanning 3 orders of magnitude to determine K1 values. Each analysis was repeated two times (in triplicates) in two separate experiments. The Cheng-Prusoff equation was used to calculate the K1 values from the IC50 values, determined by the non-linear curve fitting program PRISM® 3.0 (GraphPad, San Diego, Calif., USA). In table 1K, values of selected compounds as inhibitors of human NTPDases are given.

[3] = target: rP2Y6 (Rattus norvegicus, UniProt Q63371); assay: Inhibition of UDP binding at rP2Y6; settings: read-out: rP2Y6 % inhibition of UDP binding at 100 μM, n = 3, mean ± SEM
[4] = target: hP2Y4 (Homo sapiens, UniProt P51582); assay: Inhibition of UTP binding at hP2Y4; settings: read-out: hP2Y4 % inhibition of UTP binding at 100 μM, n = 3, mean ± SEM
Experimental: (§1) In table 2 inhibition data of selected examples at human P2Y receptor subtypes were collected. It can be seen that no compound was identified that inhibited P2Y receptors at high concentrations of 100 μM and 10 μM, respectively.

[5] = target: T3, human NTPDase2 (Homo sapiens, UniProt Q9Y5L3); assay: NTPDase inhibition assay by capillary electrophoresis (CE), NTPDase2; assay type: biochemical
T3 sequence (Q9Y5L3 1-495): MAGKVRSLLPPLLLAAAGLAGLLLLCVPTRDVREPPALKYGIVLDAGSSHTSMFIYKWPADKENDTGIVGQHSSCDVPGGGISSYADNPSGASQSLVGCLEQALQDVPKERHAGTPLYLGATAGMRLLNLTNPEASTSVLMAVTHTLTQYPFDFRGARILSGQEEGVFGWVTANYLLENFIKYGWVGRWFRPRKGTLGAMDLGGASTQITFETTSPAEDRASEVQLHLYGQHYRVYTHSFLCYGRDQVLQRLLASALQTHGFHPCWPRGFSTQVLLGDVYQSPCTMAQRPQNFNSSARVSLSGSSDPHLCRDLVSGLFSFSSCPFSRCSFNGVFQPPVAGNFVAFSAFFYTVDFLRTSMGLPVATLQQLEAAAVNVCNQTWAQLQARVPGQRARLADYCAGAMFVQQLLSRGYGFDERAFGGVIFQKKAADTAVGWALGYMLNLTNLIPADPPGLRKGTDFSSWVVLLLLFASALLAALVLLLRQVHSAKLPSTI

[6] = target: hP2Y12 (Homo sapiens, UniProt Q9H244); assay: Inhibition of [3H]PSB-0413 binding at hP2Y12; settings: mean ± SEM, read-out: hP2Y12 % Inhibition of [^3H]PSB-0413 Binding at 10 μM, n = 3
Experimental: as §1

[7] = target: hP2Y2 (Homo sapiens, UniProt P41231); assay: Inhibition of UTP binding at hP2Y2; settings: read-out: hP2Y2 % inhibition of UTP binding at 100 μM, n = 3, mean ± SEM
Experimental: as §1

Sequence of hP2Y12 (Q9H244 whole entry): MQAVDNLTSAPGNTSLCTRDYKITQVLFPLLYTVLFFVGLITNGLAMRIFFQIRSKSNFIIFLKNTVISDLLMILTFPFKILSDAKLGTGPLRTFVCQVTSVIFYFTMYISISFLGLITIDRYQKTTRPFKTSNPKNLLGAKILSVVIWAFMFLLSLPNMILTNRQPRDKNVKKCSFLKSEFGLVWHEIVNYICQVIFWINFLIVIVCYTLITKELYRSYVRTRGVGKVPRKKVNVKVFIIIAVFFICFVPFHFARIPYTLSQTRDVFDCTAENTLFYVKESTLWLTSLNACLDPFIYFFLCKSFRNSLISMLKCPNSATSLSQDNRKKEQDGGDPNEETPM
Sequence of hP2Y2 (P41231 whole entry): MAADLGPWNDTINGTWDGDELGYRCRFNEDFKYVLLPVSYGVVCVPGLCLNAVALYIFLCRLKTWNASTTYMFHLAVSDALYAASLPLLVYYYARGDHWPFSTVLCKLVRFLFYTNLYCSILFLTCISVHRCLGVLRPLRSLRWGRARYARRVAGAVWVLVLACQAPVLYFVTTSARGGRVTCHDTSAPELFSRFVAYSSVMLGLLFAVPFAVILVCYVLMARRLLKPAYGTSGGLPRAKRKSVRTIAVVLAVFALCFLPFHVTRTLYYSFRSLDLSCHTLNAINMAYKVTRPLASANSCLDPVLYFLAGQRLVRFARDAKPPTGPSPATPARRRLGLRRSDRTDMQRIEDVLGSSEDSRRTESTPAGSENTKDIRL
Sequence of rP2Y6 (Q63371 whole entry): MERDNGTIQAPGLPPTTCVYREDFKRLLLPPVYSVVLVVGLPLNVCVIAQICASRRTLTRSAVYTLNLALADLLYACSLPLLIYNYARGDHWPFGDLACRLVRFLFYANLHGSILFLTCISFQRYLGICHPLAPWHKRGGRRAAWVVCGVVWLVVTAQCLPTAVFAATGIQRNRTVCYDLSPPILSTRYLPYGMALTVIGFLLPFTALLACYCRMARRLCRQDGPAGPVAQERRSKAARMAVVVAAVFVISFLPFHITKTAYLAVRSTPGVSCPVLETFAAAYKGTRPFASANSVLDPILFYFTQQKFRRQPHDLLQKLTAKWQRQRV
Sequence of hP2Y4 (P51582 whole entry): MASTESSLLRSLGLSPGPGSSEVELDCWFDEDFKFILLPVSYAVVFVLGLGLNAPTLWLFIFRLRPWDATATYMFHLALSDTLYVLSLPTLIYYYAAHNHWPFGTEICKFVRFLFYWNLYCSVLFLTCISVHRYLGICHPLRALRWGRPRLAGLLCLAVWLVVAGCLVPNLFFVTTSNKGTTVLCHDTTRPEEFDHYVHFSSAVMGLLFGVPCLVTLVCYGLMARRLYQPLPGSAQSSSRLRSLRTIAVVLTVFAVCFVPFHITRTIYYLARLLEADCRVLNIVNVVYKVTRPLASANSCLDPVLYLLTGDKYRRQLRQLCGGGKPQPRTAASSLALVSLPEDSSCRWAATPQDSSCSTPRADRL

Ki [1] [µM]	Ki [2] [µM]	Structure (SMILES)	further results
1.61 ± 0.62	–	Cc1cn([C@@H]2O[C@H](C(=O)NCCCC(=O)NC(CC(=O)O)C(=O)O)[C@@H](O)[C@H]2O)c(=O)[nH]c1=O (stereo partly drawn) [Compound 25, 2-[4-((2S,3R,4S,5R)-5-(2,4-Dioxo-5-methylpyrimidin-1(2H)-yl)-3,4-dihydroxy-tetrahydrofurane-2-carboxamido)butaneamido]-(S)-aspartic acid]	–
6.47 ± 1.31	–	O=C(CNC(=O)[C@H]1O[C@@H](n2ccc(=O)[nH]c2=O)C(O)C1O)Nc1ccc(CP(=O)(O)O)cc1 (stereo in doubt) [Compound 21, 4-[2-((2S,3R,4S,5R)-5-(2,4-Dioxo-3,4-dihydropyrimidine-1(2H)-yl)-3,4-dihydroxy-tetrahydrofurane-2-carboxamido)ethaneamido]benzylphosphonic acid]	–
0.18 ± 0.014	–	O=C(O)C[C@H](NC(=O)CCCNC(=O)[C@H]1O[C@@H](N2CCC(=O)NC2=O)[C@H](O)[C@@H]1O)C(=O)O [Compound 23, 2-[4-((2S,3R,4S,5R)-5-(2,4-Dioxo-3,4,5,6-tetrahydropyrimidine-1(2H)-yl)-3,4-dihydroxy-tetrahydrofurane-2-carboxamido)butaneamido]-(S)-aspartic acid]	–
–	29 ± 4	CCOC(=O)C(CC(=O)O)NC(=O)CCCNC(=O)[C@H]1O[C@@H](n2ccc(=O)[nH]c2=O)[C@H](O)[C@@H]1O (stereo partly drawn) [Compound 15, 2-[4-((2S,3R,4S,5R)-5-(2,4-Dioxo-3,4-dihydropyrimidin-1(2H)-yl)-3,4-dihydroxy-tetrahydrofurane-2-carboxamido)butaneamido]-(S)-aspartic acid-1-ethylester]	inhibition at 100 µM [7]: -28 ± 11%
34.3 ± 0.2	–	O=C(O)CC[C@H](NC(=O)CNC(=O)[C@H]1O[C@@H](N2CCC(=O)NC2=O)[C@H](O)[C@@H]1O)C(=O)O [Compound 24, 2-[2-((2S,3R,4S,5R)-5-(2,4-Dioxo-3,4,5,6-dihydropyrimidine-1(2H)-yl)-3,4-dihydroxy-tetrahydrofurane-2-carboxamido)ethaneamido]-(S)-glutamic acid]	–
0.78 ± 0.18	10.8 ± 1	O=C(O)CCC(NC(=O)CCNC(=O)[C@H]1O[C@@H](N2CCC(=O)NC2=O)[C@H](O)[C@@H]1O)C(=O)O (stereo partly drawn) [Compound 14, 2-[3-((2S,3R,4S,5R)-5-(2,4-Dioxo-3,4,5,6-tetrahydropyrimidin-1(2H)-yl)-3,4-dihydroxy-tetrahydrofurane-2-carboxamido)propaneamido]-(S)-glutamic acid]	inhibition at 10 µM [6]: 6 ± 4%

Structure (SMILES)	Ki [1] [µM]	Ki [2] [µM]	further results
CCOP(=O)(OCC)C(NC(=O)CCNC(=O)[C@H]1O[C@@H](n2ccc(=O)[nH]c2=O)C(O)C1O)P(=O)(OCC)OCC (stereo in doubt) [Compound 11, 3-[(2S,3R,4S,5R)-5-(2,4-Dioxo-3,4-dihydropyrimidin-1(2H)-yl)-3,4-dihydroxy-tetrahydrofurane-2-carboxamido]propaneamidomethylenediphosphonic acid tetraethylester]	–	325 ± 25	inhibition at 100 µM [3]: 14 ± 2%; inhibition at 100 µM [4]: 7 ± 20%; Ki [5]: ~175 µM; inhibition at 1000 µM ([5]; read-out: NTPDase2 inhibition (%) at 1 mM): 51%; inhibition at 10 µM [6]: 1 ± 5%; inhibition at 100 µM [7]: -12 ± 24%
